Source: patent publication US8129403B2, “Chemical compounds” (AstraZeneca AB, priority 2005, dated 2012)

Biological target: T1, human Trk A kinase (Homo sapiens, UniProt P04629)
T1 construct: HIS tag; made in house; host or cells: SF9 insect cells
Assay: Trk A Assay (Alphascreen kinase assay)
Assay type: biochemical
Settings: intracellular domain of HIS-tagged human Trk A, 70 μM ATP, PolyEY-biotin substrate, 20 minutes room temperature; read-out: IC50 (μM), Trk inhibitory activity
Description: Trk A kinase activity was measured for its ability to phosphorylate synthetic tyrosine residues within a generic polypeptide substrate using an Amplified Luminescent Proximity Assay (Alphascreen) technology (PerkinElmer, 549 Albany Street, Boston, Mass.).
To measure Trk A kinase activity, the intracellular domain of a HIS-tagged human Trk A kinase (amino acids 442-796 of Trk A, Swiss-Prot Primary Accession Number P04629) was expressed in SF9 cells and purified using standard nickel column chromatography. After incubation of the kinase with a biotinylated substrate and adenosine triphosphate (ATP) for 20 minutes at room temperature, the kinase reaction was stopped by the addition of 30 mM ethylenediaminetetraacetic acid (EDTA). The reaction was performed in 384 well microtitre plates and the reaction products were detected with the addition of strepavidin coated Donor Beads and phosphotyrosine-specific antibodies coated Acceptor Beads using the EnVision Multilabel Plate Reader after an overnight incubation at room temperature.

T1 sequence (P04629 442-796): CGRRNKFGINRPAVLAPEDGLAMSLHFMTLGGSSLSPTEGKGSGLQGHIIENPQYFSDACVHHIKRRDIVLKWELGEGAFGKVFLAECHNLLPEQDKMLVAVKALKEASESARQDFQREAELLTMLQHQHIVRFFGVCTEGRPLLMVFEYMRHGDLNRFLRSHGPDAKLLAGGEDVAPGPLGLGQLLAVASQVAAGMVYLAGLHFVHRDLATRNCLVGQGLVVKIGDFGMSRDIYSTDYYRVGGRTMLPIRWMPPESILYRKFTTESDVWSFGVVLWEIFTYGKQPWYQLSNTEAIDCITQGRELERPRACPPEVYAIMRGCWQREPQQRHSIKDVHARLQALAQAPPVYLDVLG

| IC50 | SMILES |
| --- | --- |
| 0.022 µM | Fc1ccc(CNc2ccc3ncn(-c4cc(C5CC5)[nH]n4)c3n2)cc1 [Example 14, N-(4-Fluorobenzyl)-3-(5-cyclopropyl-1H-pyrazol-3-yl)-3H-imidazo[4,5-b]pyridin-5-amine] |
| 0.02 µM | Fc1ccc(CNc2ncc3ncn(-c4cc(C5CC5)[nH]n4)c3n2)cc1 [Example 4, 9-(5-Cyclopropyl-1H-pyrazol-3-yl)-N-(4-fluorobenzyl)-9H-purin-2-amine] |
| 0.015 µM | Fc1ccc(CNc2ccc3ncn(-c4cc(C5CC5)[nH]n4)c3c2)cc1 [Example 29, N-(4-Fluorobenzyl)-3-(5-cyclopropyl-1H-pyrazol-3-yl)-3H-benzo[d]imidazol-5-amine] |
